Activity calls are given as the source filed them. The rule behind the calls is not given here.
Key:
[1] = target: T1, Protein deacetylase HDAC6 (Homo sapiens) (UniProt Q9UBN7); test: (§1) Inhibition of N-terminal GST-tagged full length recombinant human HDAC6 (1 to 1215 end residues) expressed in sf9 cells at > 10 uM using ZMAL (Z-Lys(Ac)-AMC as fluorogenic substrate preincubated with compound for 60 mins followed by substrate addition and measured after 90 mins by fluorescence based microplate reader analysis relative to control; settings: time 150.0 min
T1 sequence (whole entry): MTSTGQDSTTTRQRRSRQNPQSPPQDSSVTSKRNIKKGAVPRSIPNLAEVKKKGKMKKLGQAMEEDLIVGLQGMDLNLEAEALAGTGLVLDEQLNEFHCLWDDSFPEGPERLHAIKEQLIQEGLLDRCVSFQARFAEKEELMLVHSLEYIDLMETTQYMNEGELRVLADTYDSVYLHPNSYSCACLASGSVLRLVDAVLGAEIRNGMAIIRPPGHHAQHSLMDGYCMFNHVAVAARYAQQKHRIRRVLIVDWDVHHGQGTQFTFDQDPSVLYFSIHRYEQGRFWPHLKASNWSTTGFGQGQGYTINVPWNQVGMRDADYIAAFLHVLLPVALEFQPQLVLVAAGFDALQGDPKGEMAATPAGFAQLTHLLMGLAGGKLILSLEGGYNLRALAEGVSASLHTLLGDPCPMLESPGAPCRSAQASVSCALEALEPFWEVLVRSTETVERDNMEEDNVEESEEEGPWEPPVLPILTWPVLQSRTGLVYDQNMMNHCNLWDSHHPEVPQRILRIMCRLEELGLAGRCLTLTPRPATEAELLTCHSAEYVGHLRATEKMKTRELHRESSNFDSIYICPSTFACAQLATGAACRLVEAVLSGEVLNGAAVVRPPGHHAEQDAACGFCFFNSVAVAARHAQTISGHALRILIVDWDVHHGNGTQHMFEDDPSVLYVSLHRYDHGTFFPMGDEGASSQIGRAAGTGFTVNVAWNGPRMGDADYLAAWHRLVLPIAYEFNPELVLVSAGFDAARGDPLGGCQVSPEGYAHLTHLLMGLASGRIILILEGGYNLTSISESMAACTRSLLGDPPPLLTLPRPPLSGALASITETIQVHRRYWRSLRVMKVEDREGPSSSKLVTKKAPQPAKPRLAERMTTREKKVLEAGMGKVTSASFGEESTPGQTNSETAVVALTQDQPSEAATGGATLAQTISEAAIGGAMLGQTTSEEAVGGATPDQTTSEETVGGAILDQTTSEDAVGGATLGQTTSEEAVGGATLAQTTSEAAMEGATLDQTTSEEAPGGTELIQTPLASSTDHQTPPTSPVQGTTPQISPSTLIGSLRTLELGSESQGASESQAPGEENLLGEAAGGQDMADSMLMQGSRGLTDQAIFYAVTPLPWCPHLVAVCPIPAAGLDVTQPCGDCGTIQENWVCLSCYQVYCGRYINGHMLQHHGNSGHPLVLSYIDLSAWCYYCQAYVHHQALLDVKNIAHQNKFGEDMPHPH

[2] = target: T1, Protein deacetylase HDAC6 (Homo sapiens); test: as §1, with “3.33” for “10”
A2780 = test: Effect of Bcl-2 protein level in human A2780 cells at 0.75 uM incubated for 48 hrs by Immunoblotting analysis; type: functional, cell-based

inhibition [1]	inhibition [2]	Structure (SMILES)	Activity (A2780)
< 25%	–	CCCNNC(=O)c1ccc(CN(CC(=O)NCc2ccccc2)C(=O)c2ccc(N(C)C)cc2)cc1	–
–	< 25%	CCCCNNC(=O)c1ccc(CN(CC(=O)NCc2ccccc2)C(=O)c2ccc(N(C)C)cc2)cc1	inactive

From ChEMBL document CHEMBL6120974, “Hydrazide-Based Class I Selective HDAC Inhibitors Completely Reverse Chemoresistance Synergistically in Platinum-Resistant Solid Cancer Cells” (J Med Chem, 2024)
